Our source for the IC50 and Ki values is BindingDB's records for doi:10.1016/j.bmcl.2012.07.091 (University of Copenhagen, 2012).

Structures are written as SMILES.

A word on the IC50: it is the concentration that gives 50% inhibition. The low end stands for greater potency in that assay, the high end for weaker potency in that assay. For orientation: Ki means the equilibrium dissociation constant of an inhibitor or competing ligand from its target. Higher therefore signals weaker binding.

The target of the test is T1, Lysine-specific demethylase 4C (Homo sapiens, UniProt Q9H3R0).
T1 sequence (Q9H3R0 whole entry): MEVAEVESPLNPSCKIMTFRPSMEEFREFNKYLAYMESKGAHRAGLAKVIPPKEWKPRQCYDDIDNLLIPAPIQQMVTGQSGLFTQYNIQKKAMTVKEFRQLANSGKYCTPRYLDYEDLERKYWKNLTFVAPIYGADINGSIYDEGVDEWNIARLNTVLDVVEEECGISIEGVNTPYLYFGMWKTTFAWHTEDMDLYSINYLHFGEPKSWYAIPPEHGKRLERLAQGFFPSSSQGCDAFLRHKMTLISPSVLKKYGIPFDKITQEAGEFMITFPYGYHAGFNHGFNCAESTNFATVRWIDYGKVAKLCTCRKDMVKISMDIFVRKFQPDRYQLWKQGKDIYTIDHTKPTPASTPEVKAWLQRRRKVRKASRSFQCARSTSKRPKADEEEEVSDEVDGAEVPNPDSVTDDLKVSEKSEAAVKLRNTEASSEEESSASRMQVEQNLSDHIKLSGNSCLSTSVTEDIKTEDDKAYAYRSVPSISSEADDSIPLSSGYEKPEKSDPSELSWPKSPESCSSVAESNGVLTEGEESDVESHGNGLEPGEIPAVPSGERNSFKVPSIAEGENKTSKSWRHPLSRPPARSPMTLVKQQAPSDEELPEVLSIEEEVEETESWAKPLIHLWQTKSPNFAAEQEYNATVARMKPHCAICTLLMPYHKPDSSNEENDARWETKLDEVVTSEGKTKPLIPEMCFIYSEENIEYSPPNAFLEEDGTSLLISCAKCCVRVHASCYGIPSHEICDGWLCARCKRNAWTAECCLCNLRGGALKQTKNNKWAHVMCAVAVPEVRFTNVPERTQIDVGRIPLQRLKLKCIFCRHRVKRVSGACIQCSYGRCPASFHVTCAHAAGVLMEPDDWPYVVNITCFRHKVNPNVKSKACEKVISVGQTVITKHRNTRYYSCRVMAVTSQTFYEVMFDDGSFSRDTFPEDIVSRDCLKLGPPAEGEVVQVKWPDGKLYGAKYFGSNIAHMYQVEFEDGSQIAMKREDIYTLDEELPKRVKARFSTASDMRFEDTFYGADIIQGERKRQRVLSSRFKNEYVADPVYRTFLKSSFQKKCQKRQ
The test is described as follows: Inhibition of KDM4C catalytic core-mediated demethylation of ARK(Me)3STGGK after 30 mins by FDH-coupled assay.

In turn, `CNC(=O)c1n[nH]n(C)c1=O` had an IC50 of more than 200 µM and a Ki of more than 200 µM.
`OCC1C(Cl)N=NN1c1ccccc1` (stereo unspecified) had an IC50 of more than 200 µM and a Ki of more than 200 µM.
`CN1CN(Cc2ccccc2)CC1=S` displayed a half-maximal inhibitory concentration (IC50) of more than 200 µM and an inhibition constant Ki of more than 200 µM.
